From patent US7709636B2, “Pyrazole sulfonylurea compound and herbicide” (Nissan Chemical Industries, Ltd., priority 2004, dated 2010)

Tests used:
Echinochloa crus-galli [1] = test: Herbicidal effect test in submerged condition by treatment before weed-generation (1); type: in vivo; conditions: 0.64 g/a, water surface treated on day of sowing, 3 weeks after treatment
Text: (§1) Herbicidal Effect Test in Submerged Condition by Treatment Before Weed-Generation (1)
(§2) After alluvial soil was placed in a styrol cup of 1/30000 are, water was poured therein and mixed, and adjusted to a submerged condition of water depth 4 cm. After seeds of Echinochloa crus-galli, Scirpus juncoides and Monochoria vaginalis were sown in the cup, rice seedlings at 2.5th leaf stage were transplanted. On the day when the seeds were sown, the wettable powder of the present invention prepared according to Formulation Example 1 was diluted with water so as to give a predetermined formulation amount, and the surface of the water was treated with the diluted wettable powder. The plants were grown by putting the cup in a green house at 25 to 30° C., and investigated on herbicidal effect against each weed 3 weeks after treatment with the herbicide according to the following criteria.
(§3) 5 Herbicidal rate 90% or more (almost complete death)
(§4) 4 Herbicidal rate 70% or more and less than 90%
(§5) 3 Herbicidal rate 40% or more and less than 70%
(§6) 2 Herbicidal rate 20% or more and less than 40%
(§7) 1 Herbicidal rate 5% or more and less than 20%
(§8) 0 Herbicidal rate 5% or less (little effect)

Monochoria vaginalis [2] = test: as above; type: in vivo; conditions: 0.64 g/a, water surface treated on day of sowing, 3 weeks after treatment
Text: as §1, §2, §3, §4, §5, §6, §7, §8

Scirpus juncoides [3] = test: as above; type: in vivo; conditions: 0.64 g/a, water surface treated on day of sowing, 3 weeks after treatment
Text: as §1, §2, §3, §4, §5, §6, §7, §8

Echinochloa crus-galli [4] = test: Herbicidal effect test in submerged condition by treatment during weed-growth stage (1); type: in vivo; conditions: 0.64 g/a, treated at 1st to 2nd leaf stage, 3 weeks after treatment
Method in brief: (§9)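 Paddy-soil pots flooded to 4 cm water depth were sown and grown in a greenhouse at 25 to 30° C until weeds reached 1st to 2nd leaf stage. A wettable powder diluted in water to a predetermined formulation amount was applied to the water surface. Herbicidal effect was scored 3 weeks after treatment against set criteria.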

Monochoria vaginalis [5] = test: as above; type: in vivo; conditions: 0.64 g/a, treated at 1st to 2nd leaf stage, 3 weeks after treatment
Method in brief: as §9

Scirpus juncoides [6] = test: as above; type: in vivo; conditions: 0.64 g/a, treated at 1st to 2nd leaf stage, 3 weeks after treatment
Method in brief: as §9

Abutilon avicennae [7] = test: Herbicidal effect test by soil treatment; type: in vivo; conditions: 1.6 g/a, 3 weeks after treatment
Method in brief: (§10)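 Read-out is a visual herbicidal-effect rating taken 3 weeks post-treatment. Plants grew from seed sown in sterilized diluvial soil, covered with about 1.5 cm soil, then surface-sprayed with water-diluted wettable powder at a predetermined formulation amount.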

Amaranthus retroflexus [8] = test: Herbicidal effect test by soil treatment; type: in vivo; conditions: 1.6 g/a, 3 weeks after treatment
Method in brief: as §10

Ambrosia elatior [9] = test: Herbicidal effect test by soil treatment; type: in vivo; conditions: 1.6 g/a, 3 weeks after treatment
Method in brief: as §10

Beta vulgaris (beet) [10] = test: Herbicidal effect test by soil treatment; type: in vivo; conditions: 1.6 g/a, 3 weeks after treatment
Method in brief: as §10

Chenopodium album [11] = test: Herbicidal effect test by soil treatment; type: in vivo; conditions: 1.6 g/a, 3 weeks after treatment
Method in brief: as §10

Digitaria adscendes [12] = test: Herbicidal effect test by soil treatment; type: in vivo; conditions: 1.6 g/a, 3 weeks after treatment
Method in brief: as §10

Echinochloa crus-galli [13] = test: Herbicidal effect test by soil treatment; type: in vivo; conditions: 1.6 g/a, 3 weeks after treatment
Method in brief: as §10

Polygonum blumei [14] = test: Herbicidal effect test by soil treatment; type: in vivo; conditions: 1.6 g/a, 3 weeks after treatment
Method in brief: as §10

Setaria viridis [15] = test: Herbicidal effect test by soil treatment; type: in vivo; conditions: 1.6 g/a, 3 weeks after treatment
Method in brief: as §10

Stellaria media [16] = test: Herbicidal effect test by soil treatment; type: in vivo; conditions: 1.6 g/a, 3 weeks after treatment
Method in brief: as §10

corn (Zea mays) [17] = test: Herbicidal effect test by soil treatment; type: in vivo; conditions: 1.6 g/a, 3 weeks after treatment
Method in brief: as §10

soybean (Glycine max) [18] = test: Herbicidal effect test by soil treatment; type: in vivo; conditions: 1.6 g/a, 3 weeks after treatment
Method in brief: as §10

direct sown rice [19] = test: Herbicidal effect test by soil treatment; type: in vivo, Oryza sativa; conditions: 1.6 g/a, 3 weeks after treatment
Method in brief: as §10

Abutilon avicennae [20] = test: Herbicidal effect test by foliage treatment; type: in vivo; conditions: 1.6 g/a; foliage treatment after growth of 14 days; 3 weeks after treatment
Text: (§11) Herbicidal Effect Test by Foliage Treatment
(§12) Sterilized diluvial soil was placed in a plastic box having a size of length 21 cm, width 13 cm and depth 7 cm, seeds of Echinochloa crus-galli, Digitaria adscendes, Setaria viridis, Avena fatua, Black-grass, Abutilon avicennae, Ambrosia elatior, Amaranthus retroflexus, Chenopodium album, Polygonum blumei, Stellaria media, Zea mays, Glycine max, Oryza sativa, Triticum aestivum and Beta vulgaris were sown interspatially, covered with about 1.5 cm of soil, and then the plants were grown by putting the box in a green house at 25 to 30° C. After growth of 14 days, the wettable powder of the present invention prepared according to Formulation Example 1 was diluted with water so as to give a predetermined formulation amount, and the foliage part was uniformly treated with the diluted wettable powder by use of a small-sized spray. The herbicidal effect for each plant was investigated 3 weeks after treatment with the herbicide according to the criteria indicated in Test Example 1.

Amaranthus retroflexus [21] = test: Herbicidal effect test by foliage treatment; type: in vivo; conditions: 1.6 g/a; foliage treatment after growth of 14 days; 3 weeks after treatment
Text: as §11, §12

Ambrosia elatior [22] = test: Herbicidal effect test by foliage treatment; type: in vivo; conditions: 1.6 g/a; foliage treatment after growth of 14 days; 3 weeks after treatment
Text: as §11, §12

Avena fatua = test: Herbicidal effect test by foliage treatment; type: in vivo; conditions: 1.6 g/a; foliage treatment after growth of 14 days; 3 weeks after treatment
Text: as §11, §12

Beta vulgaris (beet) [23] = test: Herbicidal effect test by foliage treatment; type: in vivo; conditions: 1.6 g/a; foliage treatment after growth of 14 days; 3 weeks after treatment
Text: as §11, §12

Black-grass = test: Herbicidal effect test by foliage treatment; type: in vivo; conditions: 1.6 g/a; foliage treatment after growth of 14 days; 3 weeks after treatment
Text: as §11, §12

Chenopodium album [24] = test: Herbicidal effect test by foliage treatment; type: in vivo; conditions: 1.6 g/a; foliage treatment after growth of 14 days; 3 weeks after treatment
Text: as §11, §12

Digitaria adscendes [25] = test: Herbicidal effect test by foliage treatment; type: in vivo; conditions: 1.6 g/a; foliage treatment after growth of 14 days; 3 weeks after treatment
Text: as §11, §12

Echinochloa crus-galli [26] = test: Herbicidal effect test by foliage treatment; type: in vivo; conditions: 1.6 g/a; foliage treatment after growth of 14 days; 3 weeks after treatment
Text: as §11, §12

Polygonum blumei [27] = test: Herbicidal effect test by foliage treatment; type: in vivo; conditions: 1.6 g/a; foliage treatment after growth of 14 days; 3 weeks after treatment
Text: as §11, §12

Setaria viridis [28] = test: Herbicidal effect test by foliage treatment; type: in vivo; conditions: 1.6 g/a; foliage treatment after growth of 14 days; 3 weeks after treatment
Text: as §11, §12

Stellaria media [29] = test: Herbicidal effect test by foliage treatment; type: in vivo; conditions: 1.6 g/a; foliage treatment after growth of 14 days; 3 weeks after treatment
Text: as §11, §12

[30] = system: Triticum aestivum (wheat); test: Herbicidal effect test by foliage treatment; type: in vivo; conditions: 1.6 g/a; foliage treatment after growth of 14 days; 3 weeks after treatment
Text: as §11, §12

corn (Zea mays) [31] = test: Herbicidal effect test by foliage treatment; type: in vivo; conditions: 1.6 g/a; foliage treatment after growth of 14 days; 3 weeks after treatment
Text: as §11, §12

soybean (Glycine max) [32] = test: Herbicidal effect test by foliage treatment; type: in vivo; conditions: 1.6 g/a; foliage treatment after growth of 14 days; 3 weeks after treatment
Text: as §11, §12

direct sown rice [33] = test: Herbicidal effect test by foliage treatment; type: in vivo, Oryza sativa; conditions: 1.6 g/a; foliage treatment after growth of 14 days; 3 weeks after treatment
Text: as §11, §12

Question: Which results are given for `COc1cc(OC)nc(NC(=O)NS(=O)(=O)c2c(C3=NOCC(C)O3)c(C)nn2C)n1` (centres unmarked) [Compound 5, N-((4,6-dimethoxypyrimidin-2-yl)aminocarbonyl)-1,3-dimethyl-4-(5-methyl-5H,6H-1,4,2-dioxadin-3-yl)pyrazole-5-sulfonamide]?
Answer: herbicidal effect, A: Echinochloa crus-galli (Echinochloa crus-galli [1]): 5 (Herbicidal rate 90% or more (almost complete death)); herbicidal effect, C: Monochoria vaginalis (Monochoria vaginalis [2]): 5 (Herbicidal rate 90% or more (almost complete death)); herbicidal effect, B: Scirpus juncoides (Scirpus juncoides [3]): 5 (Herbicidal rate 90% or more (almost complete death)); herbicidal effect, A: Echinochloa crus-galli (Echinochloa crus-galli [4]): 5 (Herbicidal rate 90% or more (almost complete death)); herbicidal effect, C: Monochoria vaginalis (Monochoria vaginalis [5]): 5 (Herbicidal rate 90% or more (almost complete death)); herbicidal effect, B: Scirpus juncoides (Scirpus juncoides [6]): 5 (Herbicidal rate 90% or more (almost complete death)); herbicidal effect, H: Abutilon avicennae (Abutilon avicennae [7]): 4 (Herbicidal rate 70% or more and less than 90%); herbicidal effect, J: Amaranthus retroflexus (Amaranthus retroflexus [8]): 5 (Herbicidal rate 90% or more (almost complete death)); herbicidal effect, I: Ambrosia elatior (Ambrosia elatior [9]): 5 (Herbicidal rate 90% or more (almost complete death)); herbicidal effect, f: Beta vulgaris (beet) (Beta vulgaris (beet) [10]): 5 (Herbicidal rate 90% or more (almost complete death)); herbicidal effect, K: Chenopodium album (Chenopodium album [11]): 5 (Herbicidal rate 90% or more (almost complete death)); herbicidal effect, D: Digitaria adscendes (Digitaria adscendes [12]): 5 (Herbicidal rate 90% or more (almost complete death)); herbicidal effect, A: Echinochloa crus-galli (Echinochloa crus-galli [13]): 5 (Herbicidal rate 90% or more (almost complete death)); herbicidal effect, L: Polygonum blumei (Polygonum blumei [14]): 5 (Herbicidal rate 90% or more (almost complete death)); herbicidal effect, E: Setaria viridis (Setaria viridis [15]): 4 (Herbicidal rate 70% or more and less than 90%); herbicidal effect, M: Stellaria media (Stellaria media [16]): 5 (Herbicidal rate 90% or more (almost complete death)); herbicidal effect, b: corn (Zea mays) (corn (Zea mays) [17]): 5 (Herbicidal rate 90% or more (almost complete death)); herbicidal effect, c: soybean (Glycine max) (soybean (Glycine max) [18]): 5 (Herbicidal rate 90% or more (almost complete death)); herbicidal effect, d: direct sown rice (direct sown rice [19]): 5 (Herbicidal rate 90% or more (almost complete death)); herbicidal effect, H: Abutilon avicennae (Abutilon avicennae [20]): 5 (Herbicidal rate 90% or more (almost complete death)); herbicidal effect, J: Amaranthus retroflexus (Amaranthus retroflexus [21]): 5 (Herbicidal rate 90% or more (almost complete death)); herbicidal effect, I: Ambrosia elatior (Ambrosia elatior [22]): 5 (Herbicidal rate 90% or more (almost complete death)); herbicidal effect, F: Avena fatua (Avena fatua): 5 (Herbicidal rate 90% or more (almost complete death)); herbicidal effect, f: Beta vulgaris (beet) (Beta vulgaris (beet) [23]): 5 (Herbicidal rate 90% or more (almost complete death)); herbicidal effect, G: Black-grass (Black-grass): 5 (Herbicidal rate 90% or more (almost complete death)); herbicidal effect, K: Chenopodium album (Chenopodium album [24]): 5 (Herbicidal rate 90% or more (almost complete death)); herbicidal effect, D: Digitaria adscendes (Digitaria adscendes [25]): 5 (Herbicidal rate 90% or more (almost complete death)); herbicidal effect, A: Echinochloa crus-galli (Echinochloa crus-galli [26]): 5 (Herbicidal rate 90% or more (almost complete death)); herbicidal effect, L: Polygonum blumei (Polygonum blumei [27]): 5 (Herbicidal rate 90% or more (almost complete death)); herbicidal effect, E: Setaria viridis (Setaria viridis [28]): 4 (Herbicidal rate 70% or more and less than 90%); herbicidal effect, M: Stellaria media (Stellaria media [29]): 5 (Herbicidal rate 90% or more (almost complete death)); herbicidal effect, e: Triticum aestivum (wheat) [30]: 5 (Herbicidal rate 90% or more (almost complete death)); herbicidal effect, b: corn (Zea mays) (corn (Zea mays) [31]): 5 (Herbicidal rate 90% or more (almost complete death)); herbicidal effect, c: soybean (Glycine max) (soybean (Glycine max) [32]): 5 (Herbicidal rate 90% or more (almost complete death)); herbicidal effect, d: direct sown rice (direct sown rice [33]): 3 (Herbicidal rate 40% or more and less than 70%)
